In patent US10800789B2, “Antiviral compounds” (Gilead Pharmasset LLC, priority 2012, dated 2020):
Like-named read-outs stand apart in the source and are kept apart here.

Columns and labels:
[1] = tested on: stable HCV 1a RLuc replicon cells (dicistronic genotype 1a H77 replicon); assay: Renilla luciferase HCV replicon reporter assay, genotype 1a; type: cell-based; conditions: stable 1a H77 RLuc replicon cells
In short: (§1)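 First, 3-fold serial dilutions of compound went onto replicon cells, DMSO serving as no-inhibition control and ITMN-191 at >100×EC50 as positive control. Next came 72 h incubation, lysis and Renilla luciferase measurement. Finally, EC50 was calculated by non-linear regression; replicons covered genotypes 1a H77, 1b Con1, 2a JFH-1 (L31) and J6-NS5A chimera (M31).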

[2] = tested on: Q30R in genotype 1a NS5A (1a Pi-Rluc replicon, Huh-7-derived cured-51 cells); assay: Replicon assay against resistance mutant 1a Q30R; type: cell-based, HCV
In short: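 Q30R introduced by site-directed mutagenesis into the 1a Pi-RLuc replicon; replicon RNA transiently transfected into cured-51 cells. Cells treated with 3-fold serially diluted compound for 72 h, then lysed and Renilla luciferase measured; EC50 by non-linear regression.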

[3] = tested on: NS5A chimeric genotype 2a JFH-1 replicon with genotype 2a J6 strain NS5A gene (M31 present); assay: Replicon assay, genotype 2a J6 NS5A chimera; type: cell-based, HCV
In short: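 Cells carrying the stable or transiently transfected (Huh-Lunet) dicistronic RLuc replicons received 3-fold serial compound dilutions from 10 mM DMSO stocks. After 72 h, cells were lysed and Renilla luciferase read. DMSO served as the no-inhibition control and ITMN-191 above 100×EC50 as the positive control; EC50 by non-linear regression.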

[4] = tested on: NS5A chimeric genotype 1b Con1 replicon with genotype 4a ED43 strain NS5A gene; assay: Replicon assay, genotype 4a NS5A chimera; type: cell-based, HCV
[5] = IV and PO single dose pharmacokinetic studies in SD rats; type: in vivo, male Sprague-Dawley (SD) rats; conditions: male SD rats, PO 2 mg/kg vs IV infusion 1 mg/kg; for Rat % F: oral bioavailability; for bioavailability: Sprague-Dawley, rat, plasma, read-out: Rat % F
In short: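 Fasted male Sprague-Dawley rats (250-300g, n=3/group) were given 1 mg/kg IV as a 30-min jugular infusion (5% ethanol/35% PEG 400/water pH 2.0) or 2 mg/kg by oral gavage (5% ethanol/55% PEG 400/citrate pH 2.2). Plasma was sampled to 24 h and analysed by LC/MS/MS. Non-compartmental parameters were derived, and %F was calculated from the oral/IV AUC ratio.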

[6] = tested on: stable HCV 1b RLuc replicon cells (dicistronic genotype 1b Con1 replicon); assay: Renilla luciferase HCV replicon reporter assay, genotype 1b; type: cell-based
In short: as §1

[7] = tested on: NS5A chimeric genotype 2a JFH-1 replicon with genotype 2b MD2b-1 strain NS5A gene (M31 present); assay: Replicon assay, genotype 2b NS5A chimera; type: cell-based, HCV
In short: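 EC50 was fitted by non-linear regression to Renilla luciferase signal after 72 h of exposure to 3-fold serially diluted compound (10 mM DMSO stocks). Controls were DMSO (none) and ITMN-191 above 100×EC50 (full). Chimeric 2a replicons were used either stable or transiently transfected into Huh-Lunet cells.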

[8] = tested on: stable HCV 2a JFH-1 Rluc replicon cells (L31 present in NS5A); assay: Renilla luciferase HCV replicon reporter assay, genotype 2a JFH-1; type: cell-based
In short: as §1

[9] = tested on: NS5A chimeric genotype 1b Con1 replicon with genotype 3a S52 strain NS5A gene; assay: Replicon assay, genotype 3a NS5A chimera; type: cell-based, HCV
[10] = Hepatitis C virus, 72 h, activity range
[11] = Hepatitis C virus, read-out: 1a Q30R
[12] = Hepatitis C virus, read-out: 1a Q30R (nM)
[13] = Hepatitis C virus, read-out: 2a J6 (t) (nM), genotype 2a J6 NS5A chimeric replicon (M31), transiently transfected (t) into Huh-Lunet cells
[14] = Hepatitis C virus, read-out: 2a J6 (t), transiently transfected (t) into Huh-Lunet cells, activity range
[15] = Hepatitis C virus, read-out: 4a (s) (nM), genotype 4a NS5A chimeric replicon, stable replicon cells (s)
[16] = Hepatitis C virus, read-out: 4a (s), (s), activity range
[17] = Hepatitis C virus, 72 h, stable 1b Con1 RLuc replicon cells, 72 hours, read-out: 1b
[18] = Hepatitis C virus, 2BS, read-out: 2b (s), stably replicating replicon cells (s), activity range
[19] = Hepatitis C virus, read-out: 2b (s) (nM), genotype 2b MD2b-1 NS5A chimeric replicon (M31), stably replicating replicon cells (s)
[20] = Hepatitis C virus, read-out: 2b (t) (nM), genotype 2b MD2b-1 NS5A chimeric replicon (M31), transiently transfected (t)
[21] = Hepatitis C virus, read-out: 2b (t), transiently transfected (t) into Huh-Lunet cells, activity range
[22] = Hepatitis C virus, read-out: 2a JFH (nM), genotype 2a JFH-1 replicon (L31 in NS5A), stable cells
[23] = Hepatitis C virus, read-out: 2a JFH, stable 2a JFH-1 Rluc replicon cells, L31 in NS5A, activity range
[24] = Hepatitis C virus, read-out: 3a (s) (nM), genotype 3a NS5A chimeric replicon, stable replicon cells (s)
[25] = Hepatitis C virus, read-out: 3a (s), (s), activity range

Compound	Rat % F [5]	EC50 ([1]; Hepatitis C virus, 72 h)	EC50 [1, 10]	EC50 [2, 11]	EC50 [2, 12]	EC50 [3, 13]	EC50 [3, 14]	EC50 [4, 15]	EC50 [4, 16]	bioavailability [5]	EC50 [6, 17]	EC50 [7, 18]	EC50 [7, 19]	EC50 [7, 20]	EC50 [7, 21]	EC50 [8, 22]	EC50 [8, 23]	EC50 [9, 24]	EC50 [9, 25]	also measured
COC(=O)N[C@H](C(=O)N1[C@@H](C)CC[C@H]1c1ncc(-c2ccc3c(c2)COc2cc4c(ccc5nc([C@@H]6CC[C@H](C)N6C(=O)[C@@H](NC(=O)OC)[C@@H](C)OC)[nH]c54)cc2-3)[nH]1)C(C)C [DX, Methyl {(2S)-1-[(2S,4S)-2-(5-{2-[(2S,5S)-1-{(2S,3R)-3-methoxy-2-[(methoxycarbonyl)amino]butanoyl}-5-methylpyrrolidin-2-yl]-1,11-dihydroisochromeno[4′,3′:6,7]naphtho[1,2-d]imidazol-9-yl}-1H-imidazol-2-yl)-5-methylpyrrolidin-1-yl]-3-methyl-1-oxobutan-2-yl}carbamate]	21.3%	–	–	–	–	–	–	–	–	–	–	–	–	–	–	–	–	–	–	EC50 ([1]; 72 hours): 0.021 nM; EC50 ([1]; 72 hours, activity range): < 0.1 nM; EC50 ([2]; Q30R mutant replicon transiently transfected into Huh-7-derived cured-51 cells, activity range, read-out: 1a Q30R): 0.1 to 0.999 nM; EC50 ([2]; Q30R mutant replicon transiently transfected into Huh-7-derived cured-51 cells, read-out: 1a Q30R): 0.138 nM; EC50 ([3]; genotype 2a J6 NS5A chimeric replicon (M31), transiently transfected (t) into Huh-Lunet cells, read-out: 2a J6 (t)): 0.109 nM; EC50 ([3]; transiently transfected (t) into Huh-Lunet cells, activity range, read-out: 2a J6 (t)): 0.1 to 0.999 nM; EC50 ([4]; (s), activity range, read-out: 4a (s)): < 0.1 nM; EC50 ([4]; genotype 4a NS5A chimeric replicon, stable replicon cells (s), read-out: 4a (s)): 0.018 nM; EC50 ([6]; stable 1b Con1 RLuc replicon cells, 72 hours, read-out: 1b): 0.031 nM; EC50 ([7]; genotype 2b MD2b-1 NS5A chimeric replicon (M31), stably replicating replicon cells (s), read-out: 2b (s)): 0.201 nM; EC50 ([7]; genotype 2b MD2b-1 NS5A chimeric replicon (M31), transiently transfected (t), read-out: 2b (t)): 0.06 nM; EC50 ([7]; stably replicating replicon cells (s), activity range, read-out: 2b (s)): 0.1 to 0.999 nM; EC50 ([7]; transiently transfected (t) into Huh-Lunet cells, activity range, read-out: 2b (t)): < 0.1 nM; EC50 ([8]; genotype 2a JFH-1 replicon (L31 in NS5A), stable cells, read-out: 2a JFH): 0.019 nM; EC50 ([8]; stable 2a JFH-1 Rluc replicon cells, L31 in NS5A, activity range, read-out: 2a JFH): < 0.1 nM; EC50 ([9]; (s), activity range, read-out: 3a (s)): < 0.1 nM; EC50 ([9]; genotype 3a NS5A chimeric replicon, stable replicon cells (s), read-out: 3a (s)): 0.048 nM
COC(=O)NC(C(=O)N1[C@@H](C)CC[C@H]1c1nc2ccc3cc4c(cc3c2[nH]1)OCc1cc(-c2cnc([C@@H]3CC[C@H](C)N3C(=O)[C@@H](NC(=O)OC)C3CCOCC3)[nH]2)ccc1-4)C1CCOCC1 (stereo partly drawn) [EB, Methyl [(1 S)-2-[(2S,5S)-2-(5-{2-[(2S,5S)-1-{[(methoxycarbonyl)amino](tetrahydro-2H-pyran-4-yl)acetyl}-5-methylpyrrolidin-2-yl]-1,11-dihydroisochromeno[4′,3′:6,7]naphtho[1,2-d]imidazol-9-yl}-1H-imidazol-2-yl)-5-methylpyrrolidin-1-yl]-2-oxo-1-(tetrahydro-2H-pyran-4-yl)ethyl]carbamate]	–	0.024 nM	< 0.1 nM	< 0.1 nM	0.042 nM	0.012 nM	< 0.1 nM	0.014 nM	< 0.1 nM	4.2%	0.051 nM	< 0.1 nM	0.038 nM	0.092 nM	< 0.1 nM	0.012 nM	< 0.1 nM	0.075 nM	< 0.1 nM	–
CC[C@H](C)C(NC(=O)OC)C(=O)N1[C@@H](C)CC[C@H]1c1nc2ccc3cc4c(cc3c2[nH]1)OCc1cc(-c2cnc([C@@H]3CC[C@H](C)N3C(=O)[C@@H](NC(=O)OC)[C@@H](C)OC)[nH]2)ccc1-4 (stereo partly drawn) [EH, methyl{(3S)-1-[(2S,5S)-2-(9-{2-[(2S,5S)-1-{(2S,3R)-3-methoxy-2-[(methoxycarbonyl)amino]butanoyl}-5-methylpyrrolidin-2-yl]-1H-imidazol-5-yl}-1,11-dihydroisochromeno[4′,3′:6,7]naphtho[1,2-d]imidazol-2-yl)-5-methylpyrrolidin-1-yl]-3-methyl-1-oxopentan-2-yl}carbamate]	–	0.011 nM	< 0.1 nM	< 0.1 nM	0.082 nM	0.086 nM	< 0.1 nM	0.006 nM	< 0.1 nM	15.8%	0.015 nM	0.1 to 0.999 nM	0.153 nM	–	–	0.013 nM	< 0.1 nM	0.022 nM	< 0.1 nM	EC50 ([9]; Hepatitis C virus, read-out: 3a (t) (nM), genotype 3a NS5A chimeric replicon, transiently transfected (t)): 0.024 nM; EC50 ([9]; Hepatitis C virus, read-out: 3a (t), transiently transfected (t) into Huh-Lunet cells, activity range): < 0.1 nM
COC(=O)N[C@H](C(=O)N1[C@@H](C)CC[C@H]1c1ncc(-c2ccc3c(c2)COc2cc4c(ccc5nc([C@@H]6CC[C@H](C)N6C(=O)[C@@H](NC(=O)OC)[C@@H](C)OC)[nH]c54)cc2-3)[nH]1)C(C)C [FA, Methyl [(2S)-1-{(2S,5S)-2-[5-(2-{(2S,5S)-1-[N-(methoxycarbonyl)-O-methyl-L-threonyl]-5-methylpyrrolidin-2-yl}-1,11-dihydroisochromeno[4′,3′:6,7]naphtho[1,2-d]imidazol-9-yl)-1H-imidazol-2-yl]-5-methylpyrrolidin-1-yl}-3-methyl-1-oxobutan-2-yl]carbamate]	–	0.011 nM	< 0.1 nM	< 0.1 nM	0.046 nM	0.033 nM	< 0.1 nM	0.011 nM	< 0.1 nM	13.5%	0.014 nM	0.1 to 0.999 nM	0.13 nM	0.036 nM	< 0.1 nM	0.014 nM	< 0.1 nM	0.034 nM	< 0.1 nM	–
COC(=O)N[C@H](C(=O)N1[C@@H](C)CC[C@H]1c1ncc(-c2ccc3c(c2)COc2cc4c(ccc5nc([C@@H]6CC[C@H](C)N6C(=O)[C@@H](NC(=O)OC)C6CCOCC6)[nH]c54)cc2-3)[nH]1)C(C)C [FC, Methyl [(1 S)-2-[(2S,5S)-2-(9-{2-[(2S,5S)-1-{(2S)-2-[(methoxycarbonyl)amino]-3-methylbutanoyl}-5-methylpyrrolidin-2-yl]-1H-imidazol-5-yl}-1,11-dihydroisochromeno[4′,3′:6,7]naphtho[1,2-d]imidazol-2-yl)-5-methylpyrrolidin-1-yl]-2-oxo-1-(tetrahydro-2H-pyran-4-yl)ethyl]carbamate]	0%	0.014 nM	< 0.1 nM	< 0.1 nM	0.031 nM	0.015 nM	< 0.1 nM	0.011 nM	< 0.1 nM	–	–	< 0.1 nM	0.048 nM	0.024 nM	< 0.1 nM	0.011 nM	< 0.1 nM	0.031 nM	< 0.1 nM	EC50 ([6]; Hepatitis C virus, 72 h, read-out: 1b (nM), stable 1b Con1 RLuc replicon cells, 72 hours): 0.021 nM
